Experimental data published in ChEMBL document CHEMBL1140941 (J Med Chem, 2009).
Calls of active or inactive are those of the source. The calls are words filed in the database; no cut-off is given here.

What was measured:
[1] = target: T1, Peroxisome proliferator-activated receptor delta (Homo sapiens) (UniProt Q03181); test: Agonist activity at PPARdelta expressed in african green monkey CV1 cells co-expressing MH100 by luciferase reporter gene assay; type: functional, cell-based; details: CV-1
T1 sequence (whole entry): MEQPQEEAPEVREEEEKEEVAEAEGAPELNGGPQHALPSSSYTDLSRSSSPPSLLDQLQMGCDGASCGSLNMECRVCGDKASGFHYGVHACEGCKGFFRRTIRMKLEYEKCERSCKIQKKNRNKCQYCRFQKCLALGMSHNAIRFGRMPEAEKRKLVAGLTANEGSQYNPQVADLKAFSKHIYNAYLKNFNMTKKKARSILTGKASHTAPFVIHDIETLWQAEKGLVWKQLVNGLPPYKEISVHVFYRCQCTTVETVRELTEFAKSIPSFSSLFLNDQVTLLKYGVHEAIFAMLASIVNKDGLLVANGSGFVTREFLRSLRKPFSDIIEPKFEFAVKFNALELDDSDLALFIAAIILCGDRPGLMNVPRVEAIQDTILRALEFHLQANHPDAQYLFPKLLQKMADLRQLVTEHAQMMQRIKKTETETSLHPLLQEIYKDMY

[2] = target: Nuclear receptor subfamily 1 group I member 2 (Homo sapiens, UniProt O75469); test: Agonist activity at SXR expressed in african green monkey CV1 cells co-expressing MH100 by luciferase reporter gene assay; type: functional, cell-based; details: cv-1
[3] = target: Estrogen receptor beta (Homo sapiens) (UniProt Q92731); test: Agonist activity at gal-ERbeta expressed in african green monkey CV1 cells co-expressing MH100 by luciferase reporter gene assay; type: functional, cell-based; details: CV-1
[4] = target: T2, Mineralocorticoid receptor (Homo sapiens) (UniProt P08235); test: Agonist activity at gal-MR expressed in african green monkey CV1 cells co-expressing MH100 by luciferase reporter gene assay; type: functional, cell-based; details: CV-1
T2 sequence (whole entry): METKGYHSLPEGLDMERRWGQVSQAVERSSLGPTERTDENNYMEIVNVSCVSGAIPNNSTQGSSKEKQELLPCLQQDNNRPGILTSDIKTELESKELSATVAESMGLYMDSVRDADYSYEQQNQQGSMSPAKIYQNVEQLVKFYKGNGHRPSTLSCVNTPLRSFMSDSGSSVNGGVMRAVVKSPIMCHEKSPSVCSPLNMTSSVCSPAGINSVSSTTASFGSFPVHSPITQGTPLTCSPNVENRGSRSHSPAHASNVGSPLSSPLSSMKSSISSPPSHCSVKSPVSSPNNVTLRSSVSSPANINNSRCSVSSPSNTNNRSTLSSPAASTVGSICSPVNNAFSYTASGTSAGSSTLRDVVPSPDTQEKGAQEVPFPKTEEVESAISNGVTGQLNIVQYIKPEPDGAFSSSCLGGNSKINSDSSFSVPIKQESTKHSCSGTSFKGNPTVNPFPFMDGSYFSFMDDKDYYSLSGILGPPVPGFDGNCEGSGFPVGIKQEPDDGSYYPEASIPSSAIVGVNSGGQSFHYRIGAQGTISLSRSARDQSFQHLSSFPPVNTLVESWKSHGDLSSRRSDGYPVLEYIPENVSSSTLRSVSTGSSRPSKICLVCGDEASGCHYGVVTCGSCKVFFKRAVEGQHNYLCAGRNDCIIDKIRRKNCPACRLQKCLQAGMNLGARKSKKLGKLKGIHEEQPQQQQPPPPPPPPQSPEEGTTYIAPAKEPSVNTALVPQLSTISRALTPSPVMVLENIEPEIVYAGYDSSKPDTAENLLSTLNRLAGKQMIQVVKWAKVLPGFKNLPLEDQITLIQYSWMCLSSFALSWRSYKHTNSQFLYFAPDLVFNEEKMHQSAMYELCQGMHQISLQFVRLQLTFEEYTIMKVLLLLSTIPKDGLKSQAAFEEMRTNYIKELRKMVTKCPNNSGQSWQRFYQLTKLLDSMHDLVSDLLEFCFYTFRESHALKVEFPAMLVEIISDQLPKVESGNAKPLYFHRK

[5] = target: Oxysterols receptor LXR-beta (Homo sapiens) (UniProt P55055); test: Agonist activity at LXRbeta expressed in african green monkey CV1 cells co-expressing LXRE up to 10 uM by luciferase reporter gene assay relative to control; type: functional, cell-based; details: CV-1
[6] = target: Retinoic acid receptor RXR-alpha (Homo sapiens) (UniProt P19793); test: Agonist activity at RXRalpha-LBD expressed in african green monkey CV1 cells co-expressing MH100 up to 10 uM by luciferase reporter gene assay relative to control; type: functional, cell-based; details: CV-1
[7] = target: T3, Androgen receptor (Homo sapiens) (UniProt P10275); test: Antagonist activity at gal-AR expressed in african green monkey CV1 cells co-expressing MH100 with GRIP1 co-factor at 10 uM by luciferase reporter gene assay; type: functional, cell-based; details: CV-1
T3 sequence (whole entry): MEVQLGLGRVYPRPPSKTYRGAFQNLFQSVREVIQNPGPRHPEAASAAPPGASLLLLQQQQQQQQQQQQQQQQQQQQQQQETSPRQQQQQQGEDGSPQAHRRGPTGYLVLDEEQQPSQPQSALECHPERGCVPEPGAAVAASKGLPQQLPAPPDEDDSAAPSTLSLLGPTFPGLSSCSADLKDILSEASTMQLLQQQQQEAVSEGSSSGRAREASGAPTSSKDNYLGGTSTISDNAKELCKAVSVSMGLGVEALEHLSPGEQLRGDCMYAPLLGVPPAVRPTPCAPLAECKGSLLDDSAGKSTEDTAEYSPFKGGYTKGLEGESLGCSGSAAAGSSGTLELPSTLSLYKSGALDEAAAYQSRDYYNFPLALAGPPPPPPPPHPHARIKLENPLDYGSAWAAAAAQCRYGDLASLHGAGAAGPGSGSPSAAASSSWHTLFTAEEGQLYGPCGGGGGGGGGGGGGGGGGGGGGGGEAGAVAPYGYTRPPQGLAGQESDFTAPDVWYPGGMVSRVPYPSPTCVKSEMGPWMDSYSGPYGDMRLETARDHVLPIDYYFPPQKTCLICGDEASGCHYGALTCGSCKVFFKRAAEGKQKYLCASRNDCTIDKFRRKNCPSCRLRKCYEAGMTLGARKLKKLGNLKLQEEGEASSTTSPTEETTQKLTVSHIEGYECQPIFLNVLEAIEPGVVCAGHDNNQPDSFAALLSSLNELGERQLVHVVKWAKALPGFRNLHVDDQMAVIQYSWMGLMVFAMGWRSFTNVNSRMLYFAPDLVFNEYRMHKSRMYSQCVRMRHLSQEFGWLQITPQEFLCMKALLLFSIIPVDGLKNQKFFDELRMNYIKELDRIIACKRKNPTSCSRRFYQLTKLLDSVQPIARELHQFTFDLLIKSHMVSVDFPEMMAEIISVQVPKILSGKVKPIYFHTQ

[8] = AUC (0 to t) in CD rat at 3 mg/kg, po; type: ADME, organism-based; parameters: dose 3 mg/kg, route oral; details: plasma
[9] = system: Mus musculus; test: Inhibition of preatherosclerotic lesion in LDLR knockout mouse model at 3 mg/kg, po administered for 6 weeks by en-face analysis; type: functional; parameters: scale not given: the % may be the effect or the level left

Sequence of Retinoic acid receptor RXR-alpha (Homo sapiens) (P19793 whole entry, the tested form may be a part): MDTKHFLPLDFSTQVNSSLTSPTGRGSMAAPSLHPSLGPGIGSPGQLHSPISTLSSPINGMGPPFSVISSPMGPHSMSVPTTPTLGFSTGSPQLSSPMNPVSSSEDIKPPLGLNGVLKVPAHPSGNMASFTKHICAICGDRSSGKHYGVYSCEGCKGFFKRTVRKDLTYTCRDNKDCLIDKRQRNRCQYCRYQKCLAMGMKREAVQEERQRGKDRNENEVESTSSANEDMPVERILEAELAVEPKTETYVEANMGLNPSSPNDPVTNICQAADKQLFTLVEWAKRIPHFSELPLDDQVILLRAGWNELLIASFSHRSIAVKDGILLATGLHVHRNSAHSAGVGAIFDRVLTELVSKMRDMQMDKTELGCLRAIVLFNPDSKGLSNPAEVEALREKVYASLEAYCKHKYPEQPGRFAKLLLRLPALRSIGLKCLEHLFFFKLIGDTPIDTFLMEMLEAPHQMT
Sequence of Nuclear receptor subfamily 1 group I member 2 (O75469 whole entry): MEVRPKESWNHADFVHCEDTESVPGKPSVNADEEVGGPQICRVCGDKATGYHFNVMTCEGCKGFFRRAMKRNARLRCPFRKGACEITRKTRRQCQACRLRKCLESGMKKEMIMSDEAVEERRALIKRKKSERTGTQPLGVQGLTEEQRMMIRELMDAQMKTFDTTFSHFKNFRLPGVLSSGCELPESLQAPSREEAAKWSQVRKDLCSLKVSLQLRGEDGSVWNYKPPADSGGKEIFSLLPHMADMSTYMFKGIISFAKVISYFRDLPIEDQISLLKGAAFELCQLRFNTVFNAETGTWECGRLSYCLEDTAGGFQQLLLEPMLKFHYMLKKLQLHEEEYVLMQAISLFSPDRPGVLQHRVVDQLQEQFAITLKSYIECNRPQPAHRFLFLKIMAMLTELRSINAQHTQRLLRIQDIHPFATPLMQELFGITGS
Sequence of Oxysterols receptor LXR-beta (Homo sapiens) (P55055 whole entry, the tested form may be a part): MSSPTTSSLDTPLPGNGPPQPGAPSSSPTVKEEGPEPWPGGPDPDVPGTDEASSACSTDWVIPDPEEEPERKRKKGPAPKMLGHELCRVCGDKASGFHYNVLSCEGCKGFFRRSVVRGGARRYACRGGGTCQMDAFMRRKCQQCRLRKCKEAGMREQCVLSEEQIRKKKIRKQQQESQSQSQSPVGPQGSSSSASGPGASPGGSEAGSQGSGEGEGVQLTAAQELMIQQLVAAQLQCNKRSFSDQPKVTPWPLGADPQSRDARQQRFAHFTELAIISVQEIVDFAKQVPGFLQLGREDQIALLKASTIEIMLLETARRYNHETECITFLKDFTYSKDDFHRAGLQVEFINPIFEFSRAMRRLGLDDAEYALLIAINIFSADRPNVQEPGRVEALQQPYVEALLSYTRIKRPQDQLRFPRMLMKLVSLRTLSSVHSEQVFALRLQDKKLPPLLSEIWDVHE
Sequence of Estrogen receptor beta (Homo sapiens) (Q92731 whole entry): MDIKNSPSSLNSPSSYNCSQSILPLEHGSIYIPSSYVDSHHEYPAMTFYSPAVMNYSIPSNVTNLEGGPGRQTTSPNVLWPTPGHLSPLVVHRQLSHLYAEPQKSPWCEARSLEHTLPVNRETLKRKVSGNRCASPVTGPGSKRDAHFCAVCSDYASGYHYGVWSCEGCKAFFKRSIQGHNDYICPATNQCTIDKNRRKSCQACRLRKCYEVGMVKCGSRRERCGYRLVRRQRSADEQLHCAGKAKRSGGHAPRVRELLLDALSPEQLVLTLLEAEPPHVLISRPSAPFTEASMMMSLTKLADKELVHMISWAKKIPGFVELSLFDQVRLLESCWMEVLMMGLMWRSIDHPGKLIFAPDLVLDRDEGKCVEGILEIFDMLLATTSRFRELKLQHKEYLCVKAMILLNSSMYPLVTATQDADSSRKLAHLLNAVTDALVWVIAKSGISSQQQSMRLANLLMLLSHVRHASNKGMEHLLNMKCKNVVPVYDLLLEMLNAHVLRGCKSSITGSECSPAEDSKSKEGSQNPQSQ

SMILES: CC(C)OC(=O)C1=CN(C(=O)c2ccc(F)c(F)c2)CC(C)(C)c2c1[nH]c1ccccc21 [TUROFEXORATE ISOPROPYL]
- Activity [1]: inactive
- Activity [2]: Not Active
- Activity [3]: inactive
- Activity [4]: inactive
- Activity [5]: inactive
- Activity [6]: inactive
- inhibition [7]: 26%
- AUC(0-t) [8]: 7 µM·h
- Activity [9]: 36%
